In the NIST ThermoML archive (doi:10.1021/je060271a):

Conditions: 283.15 K, Liquid, Vibrating tube method

CCCCCC(=O)OCC(COC(=O)CCCCC)(COC(=O)CCCCC)COC(=O)CCCCC [pentaerythritol tetrahexanoate]
Conditions	mass density [kg/m3]
20425 kPa	1015.6
20443 kPa	1015.7
20458 kPa	1015.7
20473 kPa	1015.7
20491 kPa	1015.7
20506 kPa	1015.6
20522 kPa	1015.6
20537 kPa	1015.7
20555 kPa	1015.7
20571 kPa	1015.7
20586 kPa	1015.8
20606 kPa	1015.7
20621 kPa	1015.7
20637 kPa	1015.9
20652 kPa	1015.7
20670 kPa	1015.8
20686 kPa	1015.8
20701 kPa	1015.7
20719 kPa	1015.8
20735 kPa	1015.7
20750 kPa	1015.8
20769 kPa	1016
20785 kPa	1015.8
20801 kPa	1016
20817 kPa	1015.9
20836 kPa	1015.8
20851 kPa	1015.8
20867 kPa	1015.8
20886 kPa	1015.9
20902 kPa	1015.9
20918 kPa	1015.9
20937 kPa	1015.9
20953 kPa	1015.9
20968 kPa	1015.9
20988 kPa	1015.9
21004 kPa	1016
21021 kPa	1016
21040 kPa	1016
21057 kPa	1016
21073 kPa	1016
21092 kPa	1016
21106 kPa	1016
21122 kPa	1016
21140 kPa	1016.1
21155 kPa	1016
21170 kPa	1015.9
21185 kPa	1016.1
21204 kPa	1016.1
21219 kPa	1016
21237 kPa	1016
21252 kPa	1016.1
21267 kPa	1016.1
21282 kPa	1016.1
21301 kPa	1016.1
21316 kPa	1016.1
21332 kPa	1016.1
21350 kPa	1016.1
21366 kPa	1016.2
21384 kPa	1016.2
21399 kPa	1016.1
21415 kPa	1016.1
21430 kPa	1016.2
21449 kPa	1016.3
21465 kPa	1016.1
21480 kPa	1016.2
21499 kPa	1016.1
21514 kPa	1016.3
21530 kPa	1016.3
21546 kPa	1016.3
21565 kPa	1016.2
21581 kPa	1016.1
21597 kPa	1016.3
